From ChEMBL document CHEMBL5346903, “Discovery of novel and bioavailable histone deacetylases and cyclin-dependent kinases dual inhibitor to impair the stemness of leukemia cells” (Eur J Med Chem, 2023)

Assays:
[1] = system: U-937; experiment: Induction of differentiation in human U-937 cells assessed as increase in CD11b positive cells at 0.6 uM incubated for 48 hrs by FITC staining based flow cytometry (reference value: […] %); type: functional
[2] = target: Cyclin-dependent kinase 4/cyclin D1 (Homo sapiens) (UniProt P11802+P24385); experiment: Inhibition of CDK4/cyclinD1 (unknown origin) at 100 nM preincubated for 20 mins followed by [gamma-33P]ATP addition measured after 120 mins in presence of ATP by Hot-SpotSM kinase assay relative to control; type: protein-complex assay; details: time 140.0 min
[3] = system: HL-60; experiment: Downregulation of Pol-II S2 level in human HL-60 cells incubated for 6 hrs by Western blot analysis; type: functional, cell-based; details: dose <= 1000.0 nM
[4] = system: HL-60; experiment: Induction of apoptosis in human HL-60 cells assessed as early apoptotic cells at 0.5 uM incubated for 48 hrs by annexin V-FITC/PI satining based flow cytometry (reference value: 1.24 %); type: functional
[5] = system: HL-60; experiment: Induction of apoptosis in human HL-60 cells assessed as late apoptotic cells at 2 uM incubated for 48 hrs by annexin V-FITC/PI satining based flow cytometry (reference value: 1.33 %); type: functional
[6] = system: U-937; experiment: Induction of apoptosis in human U-937 cells assessed as viable cells at 0.5 uM incubated for 48 hrs by annexin V-FITC/PI satining based flow cytometry (reference value: 90.0 %); type: functional; details: read-out: Activity
[7] = system: U-937; experiment: Induction of apoptosis in human U-937 cells assessed as early apoptotic cells at 0.5 uM incubated for 48 hrs by annexin V-FITC/PI satining based flow cytometry (reference value: 0.945 %); type: functional
[8] = Cmax in Sprague-Dawley rat at 5 mg/kg, iv measured upto 6 hrs by LC/MS-MS analysis; type: ADME, organism-based; set-up: time < 6 hrs, dose 5 mg/kg, route iv; details: in vivo

inhibition [2] [%] | Cmax [8] [ng/mL] | SMILES | Activity [1] [%] | Activity [3] | Activity [4] [%] | Activity [5] [%] | viability at 0.5 µM [6] [%] | Activity [7] [%]
 |  | Nc1cc(F)ccc1NC(=O)c1ccc(CNC(=O)/C=C/c2cccnc2)cc1 [TUCIDINOSTAT] | 4.06 |  |  |  |  | 
53.7 | 3640 | Nc1ccccc1NC(=O)c1ccc(NC(=O)c2n[nH]cc2NC(=O)c2c(Cl)cccc2Cl)cc1 |  | Dose-Dependent Effect | 2.42 | 54.5 | 79.8 | 1.99
